Measurements from PMC8600407 (Soft matter, 2021).

Assays:
[1] = hydrophobicity of the aromatic group; source not stated; cited from earlier work
[2] = tested on: alkaline phosphatase (ALP); conditions: fff derivatives 8 mM, ALP 1.0 or 0.1 UmL^-1

For c1ccc(-c2ccccc2)cc1 [biphenyl], which logP [1] is on record?
Its logP is 3.71.

Which “enzymatic hydrogelation, times faster than pB as enzyme trigger” value [2] does the source give for O=C(O)c1ccc(-c2ccc(OP(=O)(O)O)cc2)cc1 [pBP, phosphohydroxybiphenyl-carboxylic acid] here?
Its value is 50–60 times.

Which “enzymatic hydrogelation, times faster than pB as enzyme trigger” value [2] does the source give for phosphohydroxynaphthoic acid [pNP] here?
The value was 50–60 times.
